Data set [1] concerns Mycobacterium tuberculosis. As to the kind of experiment: Antimycobacterial activity against Mycobacterium tuberculosis H37Rv ATCC 27294 incubated for 6 days by resazurin microtiter assay. The format is functional. The settings on record: H37Rv ATCC 27294, 144 h, time 6 day, read-out: MIC100. On the technique in general: Alamar Blue is a resazurin reagent that responds to reducing activity.

Data set [2] deals with Mycobacterium tuberculosis. Nature of the data set: Antimycobacterial activity against Mycobacterium tuberculosis H37Ra incubated for 6 days by resazurin microtiter assay. The following applies: 144 h, time 6 day. The format is functional.
In data set [3] the test system is Mycobacterium tuberculosis. As to the kind of experiment: Antimycobacterial activity against Mycobacterium tuberculosis 209 incubated for 6 days by resazurin microtiter assay. The format is functional. The settings on record: Mycobacterium tuberculosis, 209, 144 h; time 6 day; read-out: MIC100.
Data set [4] deals with Mycobacterium tuberculosis. Nature of the data set: Antimycobacterial activity against Mycobacterium tuberculosis H37Rv ATCC 27294 incubated for 5 days by microplate alamar blue assay. The format is functional. The following applies: H37Rv ATCC 27294, 120 h, time 5 day.
In data set [5] the test system is Mycobacterium tuberculosis. As to the kind of experiment: Antimycobacterial activity against Mycobacterium tuberculosis H37Rv assessed as percentage inhibition at 250 ug/ml measured after 2 to 4 weeks by Lowensteine-Jensen method relative to control. The data set is classed as functional. The following applies: time 2-4 weeks.
Data set [6] concerns Mycobacterium tuberculosis. Nature of the data set: Antimycobacterial activity against Mycobacterium tuberculosis. The data set is classed as functional, organism-based.
The test system of data set [7] is Mycobacterium tuberculosis. Nature of the data set: Antimycobacterial activity against Mycobacterium tuberculosis H37Rv ATCC 27294 by agar dilution method. The data set is classed as functional. Background: Agar dilution tests growth on a series of plates holding different concentrations.
Data set [8] in a line: Toxicity in brine shrimp nauplii assessed as induction of lethality incubated for 24 hrs by counting method. The settings on record: artemia salina.
Data set [9] deals with Mycobacterium tuberculosis. As to the kind of experiment: Antimycobacterial activity against Mycobacterium tuberculosis H37Ra ATCC 25177. The format is functional.
Data set [10] concerns Mycobacterium tuberculosis. Nature of the data set: Antimycobacterial activity against Mycobacterium tuberculosis H37Ra ATCC 25177 by two fold dilution technique. The format is functional.
The subject of data set [11] is Mycobacterium tuberculosis. Nature of the data set: Antimycobacterial activity against Mycobacterium tuberculosis H37Rv incubated for 5 days by microplate alamar blue assay. The data set is classed as functional. The following applies: 120 h, time 5 day.
The test system of a further data set is Mycolicibacterium phlei. As to the kind of experiment: Antimycobacterial activity against Mycobacterium phlei incubated for 5 days by microplate alamar blue assay. The data set is classed as functional. The following applies: 120 h, time 5 day.
Data set [12] relates to Mycolicibacterium smegmatis. As to the kind of experiment: Antimycobacterial activity against Mycobacterium smegmatis ATCC607 incubated for 16 to 24 hrs by microdilution liquid method. The format is functional. The settings on record: time 16-24 hrs. In general terms: Dilution methods test growth across graded concentrations, often in twofold steps.
Data set [13] relates to Mycobacterium tuberculosis. As to the kind of experiment: Antimycobacterial activity against Mycobacterium tuberculosis H37Rv incubated for 7 days by microplate alamar blue assay. The format is functional. The settings on record: 168 h, time 7 day.
The test system of data set [14] is Mycobacterium tuberculosis. As to the kind of experiment: Antimycobacterial activity against Mycobacterium tuberculosis H37Rv incubated for 5 days by two-fold serial dilution method. The data set is classed as functional. The settings on record: 120 h, time 5 day.
Data set [15] in a line: Selectivity index, ratio of IC50 for CHO-K1 cells to MIC for Mycobacterium tuberculosis H37Rv. The following applies: hamster. The format is toxicity.
The test system of a further data set is CHO-K1. Nature of the data set: Cytotoxicity against CHO-K1 cells incubated for 24 hrs by MTT assay. The data set is classed as cell-based. The settings on record: Cricetulus griseus, CHO-K1, 24 h.
For data set [16], the system named is Mycobacterium tuberculosis. Nature of the data set: Bactericidal activity against Mycobacterium tuberculosis H37Rv at 8 ug/ml measured within 7 days. The settings on record: dose 8 µg/ml; time day <=7. The format is functional.
Data set [17] concerns Mycobacterium tuberculosis. Nature of the data set: Antimycobacterial activity against Mycobacterium tuberculosis H37Rv. The data set is classed as functional.
In data set [18] the test system is Mycobacterium tuberculosis. Nature of the data set: Antimycobacterial activity against Mycobacterium tuberculosis H37Rv ATCC 27294. The data set is classed as functional.

Converted amounts (≈) assume the structure as drawn.

As to `O=C(Nc1nnc(-c2ccc(Cl)cc2)o1)c1cccc([N+](=O)[O-])c1`, the MIC in data set [1], in data set [2] (read-out: MIC100) and in [3] was 7.8 µg/mL (≈ 22.6 µM) each time. `Fc1ccc(-c2nnc(-c3n[nH]cc3-c3ccc(Cl)cc3)o2)cc1` yielded an MIC in data set [4] of 25 µg/mL (≈ 73.4 µM). As a reminder, the inhibition is the percentage by which the read-out fell short of the control. Take `Cc1nn(-c2ccccc2)c(Oc2ccc(F)cc2)c1-c1nnc(-c2ccc(Br)cc2)o1`: the inhibition at 250 µg/mL in data set [5] stood at 91%.

In the case of `O=C(Nc1nnc(-c2ccc(Cl)cc2)o1)c1ccccc1`, the results for the MIC in data set [1] and in data set [3] were 7.8 µg/mL (≈ 26 µM) and 31.2 µg/mL (≈ 104 µM), respectively. In the case of `O=C(Nc1nnc(-c2ccc(Cl)cc2)o1)c1ccc([N+](=O)[O-])[nH]1`, the MIC in data set [1] was 31.2 µg/mL (≈ 93.6 µM); in [2] (read-out: MIC), 7.8 µg/mL (≈ 23.4 µM); in data set [3], 7.8 µg/mL (≈ 23.4 µM). As for `CN1CCN(Cc2nnc(-c3ccc(Cl)cc3)o2)CC1`, the MIC in data set [4] amounted to 3.12 µg/mL (≈ 10.7 µM).

As a reminder, the IC50 is the concentration needed to halve the response being measured. A higher IC50 goes with weaker potency in that assay. In [6], `O=C(CCCC(F)(F)F)C1CCC(c2nc(-c3nccs3)no2)CC1` (stereo not given) registered an IC50 of 0.4 µM. In the case of `COc1ccc(-c2cc(-c3nnc(C)o3)nn2-c2ccc(NC(=O)c3ccccc3)cc2)cc1`, the MIC in data set [7] was > 50 µg/mL. Molecule `COc1ccc(-c2nnc(CN3CCN(C)CC3)o2)cc1` showed an MIC in data set [4] of 3.12 µg/mL (≈ 10.8 µM). On to `Cc1ccc(-c2nnc(-c3c(C)nn(-c4ccccc4)c3Oc3cccc(F)c3)o2)cc1`, for which, in [5], the inhibition at 250 µg/mL is > 90%.

One may read the LC50 as the concentration that kills 50% of the test population. Regarding `Clc1nc2ccccc2cc1CN(c1ccccc1)c1nnc(-c2cccnc2)o1`, in [5], the inhibition at 250 µg/mL came out at 96%. Moreover, the LC50 at 24 h in data set [8] turned out to be 26 µM. As to `CN1CCN(Cc2nnc(-c3ccccc3)o2)CC1`, the MIC in [4] amounted to 1.6 µg/mL (≈ 6.19 µM). As usually defined, the IC90 is the concentration at which the effect reaches the 90% level. Turning to `CC1(C)Cc2c(C#CCO)c(NC(=O)C(C)(C)C)cc(-c3nnc(-c4ccc(C(F)(F)F)cc4)o3)c2O1`, in data set [9], the IC90 was determined as 5.7 µM. In data set [10], this molecule displayed an MIC of 2 µg/mL (≈ 3.89 µM). As to `Clc1ccc2nc(Cl)c(CN(c3ccccc3)c3nnc(-c4cccnc4)o3)cc2c1`, the inhibition at 250 µg/mL in data set [5] stood at 96%. The LC50 at 24 h in data set [8] was found to be 26 µM. In data set [4], `N#Cc1ccc(-c2nnc(-c3n[nH]cc3-c3ccc(Cl)cc3)o2)cc1` had an MIC of 25 µg/mL (≈ 71.9 µM). On to `COc1ccc(-c2cc(-c3nnc(C)o3)nn2-c2ccc(NC(=O)c3ccc(F)cc3)cc2)cc1`, for which the MIC in data set [7] is > 50 µg/mL. Regarding `O=c1[nH]nc(Cc2coc3ccc(Cl)cc23)o1`, the MIC (in [11]; in the data set on Mycolicibacterium phlei) was 3.12 µg/mL (≈ 12.5 µM) in each case. As for `S=c1[nH]nc(CN2CCSCC2)o1`, in data set [12], the MIC came out at 7.8 µg/mL (≈ 35.9 µM).

Regarding `Cc1nn(-c2ccccc2)c(Oc2cccc(F)c2)c1-c1nnc(-c2ccccc2)o1`, in data set [5], the inhibition at 250 µg/mL is 91%.

Take `Cc1nnc(-c2cc(-c3ccc(Cl)cc3)n(-c3ccc(NC(=O)c4ccccc4Cl)cc3)n2)o1`: in data set [7], the MIC turned out to be 1.56 µg/mL (≈ 3.18 µM). For the molecule `Cc1ccc2nc(Cl)c(CN(c3ccccc3)c3nnc(-c4cccnc4)o3)cc2c1`, in data set [5], the inhibition at 250 µg/mL amounted to 96%. In addition, the LC50 at 24 h in data set [8] came to 26 µM.

As to `NC(=O)c1cnccn1` [PYRAZINAMIDE], the MIC in [11] came out at 3.12 µg/mL (≈ 25.4 µM); in the data set on Mycolicibacterium phlei, 3.12 µg/mL (≈ 25.4 µM); in data set [4], 3.12 µg/mL (≈ 25.3 µM). For `CO[C@H]1/C=C/O[C@@]2(C)Oc3c(C)c(O)c4c(O)c(c(/C=N/N5CCN(C)CC5)c(O)c4c3C2=O)NC(=O)/C(C)=C\C=C\[C@H](C)[C@H](O)[C@@H](C)[C@@H](O)[C@@H](C)[C@H](OC(C)=O)[C@@H]1C` [RIFAMPIN], the MIC in data set [13] is 0.2 µg/mL (≈ 0.243 µM). The inhibition at 250 µg/mL in [5] amounted to 98%. Turning to `Cc1nn(-c2ccccc2)c(Oc2cccc(C(F)(F)F)c2)c1-c1nnc(-c2ccc(Br)cc2)o1`, the inhibition at 250 µg/mL in data set [5] was found to be 91%. For `O=C(Nc1nnc(-c2ccc(Cl)cc2)o1)c1ccc([N+](=O)[O-])o1`, the MIC in data set [1], in data set [2] (read-out: MIC100) and in data set [3] was 7.8 µg/mL (≈ 23.3 µM) in each case. `Cn1c(-c2cccc(Cl)c2Cl)nc2cc(-c3nc(-c4ccccc4Cl)no3)ccc21`: in data set [11], the MIC came to 1.6 µg/mL (≈ 3.51 µM). On to `Cc1ccc(-c2nnc(-c3c(C)nn(-c4ccccc4)c3Oc3ccc(F)cc3)o2)cc1`, for which, in [5], the inhibition at 250 µg/mL was > 90%. For the molecule `c1csc(-c2nnc(Cc3cccc4ccccc34)o2)c1`, the MIC in data set [14] was 0.4 µM (≈ 0.117 µg/mL).

For the molecule `Cc1nnc(-c2cc(-c3ccc(Cl)cc3)n(-c3ccc(NC(=O)c4ccc(Cl)cc4)cc3)n2)o1`, the MIC in [7] stood at 3.13 µg/mL (≈ 6.38 µM). In the case of `CN1CCN(Cc2nnc(-c3ccc(O)cc3)o2)CC1`, in data set [4], the MIC worked out at 3.12 µg/mL (≈ 11.4 µM). Turning to `O=c1[nH]nc(Cc2coc3cc(Cl)ccc23)o1`, the MIC (in data set [11]; in the data set with Mycolicibacterium phlei) was 3.12 µg/mL (≈ 12.5 µM) each time. As to `Cc1cccc(Oc2c(-c3nnc(-c4ccc(F)cc4)o3)c(C)nn2-c2ccccc2)c1`, the inhibition at 250 µg/mL in data set [5] amounted to 91%. `Cn1c(-c2cccc(Cl)c2Cl)nc2cc(-c3nc(-c4ccc(Cl)cc4)no3)ccc21`: the MIC in data set [11] was found to be 1.6 µg/mL (≈ 3.51 µM).

In data set [13], `Oc1ccc(-c2nnc(S)o2)cc1` registered an MIC of 0.6 µg/mL (≈ 3.09 µM). Besides, the selectivity ratio in data set [15] was 39. In the data set with CHO-K1, this molecule came in with an IC50 of 23.8 µg/mL (≈ 123 µM).

For `O=C(Nc1nnc(-c2ccc(F)cc2)o1)c1ccc(Cl)cc1`, the Activity in data set [16] is reported as >90%. The MIC in data set [17] came out at 1.6 µg/mL (≈ 5.04 µM). On to `CO[C@H]1O[C@H](Cc2nnc(C)o2)[C@H](OCc2ccccc2)[C@H](OCc2ccccc2)[C@H]1OCc1ccccc1`, for which the MIC in [18] is 60 µM (≈ 31.8 µg/mL). On to `CN[C@@H]1[C@H](O[C@H]2[C@H](O[C@H]3[C@H](O)[C@@H](O)[C@H](N=C(N)N)[C@@H](O)[C@@H]3N=C(N)N)O[C@@H](C)[C@]2(O)C=O)O[C@@H](CO)[C@H](O)[C@H]1O` [STREPTOMYCIN], for which the MIC turned out to be 4 µg/mL (≈ 6.88 µM) in [12], 6.25 µg/mL (≈ 10.7 µM) in data set [11] and 6.25 µg/mL (≈ 10.7 µM) with Mycolicibacterium phlei. Take `O=C(Nc1nnc(-c2ccc(Cl)cc2)o1)c1ccc([N+](=O)[O-])s1`: the MIC in [1], in data set [2] (read-out: MIC100) and in [3] was 7.8 µg/mL (≈ 22.2 µM) each time. Consider `Cn1c(-c2cccc(Cl)c2F)nc2cc(-c3nc(-c4ccc(Cl)cc4)no3)ccc21`, for which the MIC in data set [11] is 1.6 µg/mL (≈ 3.64 µM). In data set [12], `S=c1[nH]nc(CN2CCOCC2)o1` showed an MIC of 7.8 µg/mL (≈ 38.8 µM). As to `O=c1[nH]nc(Cc2coc3cc(Br)ccc23)o1`, the MIC (in data set [11]; against Mycolicibacterium phlei) was 1.56 µg/mL (≈ 5.29 µM) each time.

These data come from ChEMBL document CHEMBL4732049, “Anti-tuberculosis activity and its structure-activity relationship (SAR) studies of oxadiazole derivatives: A key review” (Eur J Med Chem, 2021).
